Experiments:
[1] = target: Metabotropic glutamate receptor 2 (Homo sapiens, UniProt Q14416); assay: Non-competitive antagonist activity at human recombinant mGluR2 expressed in Chem-1 cell membrane assessed as inhibition of L-glutamate-induced [35S]GTPgammaS binding after 30 mins by liquid scintillation counting analysis; type: functional, cell membranes
Albumin = Albumin (Homo sapiens, UniProt P02768); assay: Protein binding in human serum albumin by chromatography; type: ADME; details: read-out: PPB (converted)
Albumin, sequence (P02768 whole entry): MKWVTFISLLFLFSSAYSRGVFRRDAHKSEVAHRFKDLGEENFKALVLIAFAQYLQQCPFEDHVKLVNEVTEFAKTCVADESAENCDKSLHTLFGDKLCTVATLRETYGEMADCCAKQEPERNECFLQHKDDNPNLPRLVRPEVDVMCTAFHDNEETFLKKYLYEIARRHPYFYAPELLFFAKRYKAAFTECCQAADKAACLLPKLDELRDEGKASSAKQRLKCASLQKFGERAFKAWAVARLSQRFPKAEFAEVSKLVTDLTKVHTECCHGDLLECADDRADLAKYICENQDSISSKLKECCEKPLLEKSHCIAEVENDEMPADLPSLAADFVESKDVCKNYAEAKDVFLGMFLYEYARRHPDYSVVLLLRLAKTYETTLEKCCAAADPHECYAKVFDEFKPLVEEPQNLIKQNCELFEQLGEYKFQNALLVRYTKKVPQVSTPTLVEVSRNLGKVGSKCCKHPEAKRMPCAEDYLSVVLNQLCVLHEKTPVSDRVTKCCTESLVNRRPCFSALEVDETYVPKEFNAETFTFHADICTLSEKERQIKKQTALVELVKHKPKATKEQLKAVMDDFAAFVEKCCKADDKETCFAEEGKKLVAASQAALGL

[2] = Lipophilicity, log P of the compound by HPLC analysis; type: physicochemical

Metabotropic glutamate receptor 2, sequence (Q14416 whole entry): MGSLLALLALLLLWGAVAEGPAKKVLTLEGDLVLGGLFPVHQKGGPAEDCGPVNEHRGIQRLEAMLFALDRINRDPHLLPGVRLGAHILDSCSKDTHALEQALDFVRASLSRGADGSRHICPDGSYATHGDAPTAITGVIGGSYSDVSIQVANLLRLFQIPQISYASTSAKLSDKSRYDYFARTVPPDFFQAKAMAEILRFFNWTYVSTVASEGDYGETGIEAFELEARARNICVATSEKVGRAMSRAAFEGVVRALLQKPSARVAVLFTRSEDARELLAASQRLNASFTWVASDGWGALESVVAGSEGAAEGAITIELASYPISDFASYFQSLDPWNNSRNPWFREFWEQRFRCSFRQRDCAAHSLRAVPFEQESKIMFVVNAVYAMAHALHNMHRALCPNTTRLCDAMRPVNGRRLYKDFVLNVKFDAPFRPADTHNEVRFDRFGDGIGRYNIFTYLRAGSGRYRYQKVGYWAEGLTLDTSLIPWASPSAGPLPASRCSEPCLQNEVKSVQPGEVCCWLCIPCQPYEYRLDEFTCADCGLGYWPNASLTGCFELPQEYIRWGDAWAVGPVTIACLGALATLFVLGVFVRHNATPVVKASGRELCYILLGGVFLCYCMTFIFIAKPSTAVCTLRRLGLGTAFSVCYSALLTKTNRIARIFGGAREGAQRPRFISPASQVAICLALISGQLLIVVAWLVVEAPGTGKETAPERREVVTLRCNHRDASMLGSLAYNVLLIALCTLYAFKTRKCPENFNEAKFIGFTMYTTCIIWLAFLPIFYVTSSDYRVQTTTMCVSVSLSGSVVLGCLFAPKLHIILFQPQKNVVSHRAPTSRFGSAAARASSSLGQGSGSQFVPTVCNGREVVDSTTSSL

Row | SMILES | IC50 [1] [nM] | fraction unbound (Albumin) | logP [2]
1 | Clc1cccc(Cl)c1/C(=C/n1cncn1)OC1CCCCCC1 | 533 |  | 
2 | COc1cc2c(cc1C(F)(F)F)NC(=O)CC(c1cccc(-n3ccnc3)c1)=N2 | 91 | 0.0759 | 4.67
3 | O=C1CC(c2cccc(-n3ccnc3)c2)=Nc2cc(OCCCF)c(C(F)(F)F)cc2N1 | 100 | 0.0488 | 5.06
4 | COc1cc2c(cc1-c1ccc(I)cc1)NC(=O)CC(c1cccc(-n3ccnc3)c1)=N2 | 89 | 0.0168 | 5.72

The next lines start with the values.

Row | IC50 [1] [nM] | fraction unbound (Albumin) | logP [2] | SMILES
5 | 89 | 0.0508 | 4.6 | O=C1CC(c2cccc(-n3ccnc3)c2)=Nc2ccc(I)cc2N1
6 | 132 | 0.0154 | 5.73 | O=C1CC(c2cccc(-n3ccnc3)c2)=Nc2ccc(-c3cccc(I)c3)cc2N1
7 | 133 | 0.0133 | 5.77 | O=C1CC(c2cccc(-n3ccnc3)c2)=Nc2ccc(-c3ccc(I)cc3)cc2N1
